Assays:
acute toxicity on rats = details: rat, in vivo
From the text: (§1) The acute toxicity of the compound of the Formula I is characterized by the data enumerated in Table 3.

[1] = system: acute coronary insufficiency induced by vasopressine; test: anti-angina activity: inhibition of vasopressine-induced acute coronary insufficiency (rise of T-wave on ECG), method of Papp and Szekeres; type: in vivo, rats belonging to the CFY strain; details: vasopressine 2 IU/kg i.v., pentobarbital anaesthetized CFY rats; papaverin = 1
[2] = system: haemodynamic and cardiovascular system; test: general effects on the haemodynamic and cardiovascular system in pentobarbital anaesthetized dogs; type: in vivo; parameters: A. vertebralis flow, Changed value: unit not given here; details: 2 mg/kg i.v.
acute toxicity on mice = details: mouse, in vivo, po
From the text: as §1

[3] = system: electric fibrillation threshold of the auricle and ventricle; test: antiarrhythmial effect: change of electric fibrillation threshold in chloralose-urethane anaesthetized cats; type: in vivo; details: 2 mg/kg i.v.
Procedure: The antiarrhythmial effect is determined on chloralose-urethane anaesthetized cats [500/300 mg/kg i.p.] by measuring the changes of the electric fibrillation threshold of the auricle and ventricle respectively [method of Szekeres, Méhes and Papp: Brit. 0. Pharmacol. 17, 167 (1961) and that of Szekeres and Papp: Hdb. exp. Pharmacol. 16/3, 131 (1975) respectively]. The general effects exerted on the haemodynamic and cardiovascular system are tested on pentobarbital anaesthetized dogs (35 mg/kg i.v.).

CCOc1ccc(CC2=NCCc3cc(OCC)c(OCC)cc32)cc1O [Formula I, 6,7-diethoxy-1-(4-ethoxy-3-hydroxy-benzyl)-3,4-dihydro-isoquinoline]
LD50 (acute toxicity on rats; iv, i.v. on rats ♀): 24.9 mg/kg | LD50 (acute toxicity on rats; iv, i.v. on rats ♂): 23 mg/kg | LD50 (acute toxicity on rats; po, p.o. on rats ♀): 625 mg/kg | LD50 (acute toxicity on rats; po, p.o. on rats ♂): 493 mg/kg | anti-angina activity related to that of papaverin [1]: 1.40 | A. carotis flow, Duration of effect [2]: 7 min | A. carotis flow, Percental difference [2]: +27 | A. carotis resistance, Duration of effect [2]: 7 min | A. carotis resistance, Percental difference [2]: -13 | A. femoralis flow, Duration of effect [2]: 3 min | A. femoralis flow, Percental difference [2]: +44 | A. femoralis resistance, Duration of effect [2]: 3 min | A. femoralis resistance, Percental difference [2]: -45 | A. vertebralis flow, Duration of effect [2]: 2 min | A. vertebralis flow, Percental difference [2]: +51 | A. vertebralis resistance, Duration of effect [2]: 2 min | A. vertebralis resistance, Percental difference [2]: -45 | Arterial blood pressure, Duration of effect [2]: 5 min | Arterial blood pressure, Percental difference [2]: -22 | Contractibility of the left ventricle (dP/dt), Duration of effect [2]: 2 min | Contractibility of the left ventricle (dP/dt), Percental difference [2]: -17 | Coronary flow, Duration of effect [2]: 16 min | Coronary flow, Percental difference [2]: +36 | Coronary resistance, Duration of effect [2]: 15 min | Coronary resistance, Percental difference [2]: -34 | Efficiency of cardial function, Duration of effect [2]: 6 min | Efficiency of cardial function, Percental difference [2]: +45 | Frequence volume, Duration of effect [2]: 35 min | Frequence volume, Percental difference [2]: +60 | Function of the left ventricle, Duration of effect [2]: 7 min | Function of the left ventricle, Percental difference [2]: -20 | Heart frequence/min, Duration of effect [2]: 31 min | Heart frequence/min, Percental difference [2]: -22 | Minute volume, Duration of effect [2]: 4 min | Minute volume, Percental difference [2]: +11 | Myocardial oxygenization (O2 supply per O2 consumption), Duration of effect [2]: 30 min | Myocardial oxygenization (O2 supply per O2 consumption), Percental difference [2]: +74 | Oxygen consumption of the left ventricle, Duration of effect [2]: 22 min | Oxygen consumption of the left ventricle, Percental difference [2]: -29 | Total peripherial resistance, Duration of effect [2]: 5 min | Total peripherial resistance, Percental difference [2]: -23 | Efficiency of cardial function, Changed value ([2]; average ± S.E., basic value 0.11 ± 0.02): 0.16 ± 0.02 mkg/ml/100 g | Coronary resistance, Changed value ([2]; average ± S.E., basic value 1.16 ±0.06): 0.76 ± 0.06 Hgmm/ml/min/100 g | Function of the left ventricle, Changed value ([2]; average ± S.E., basic value 1.24 ± 0.08): 0.99 ± 0.16 mkg/min | Myocardial oxygenization (O2 supply per O2 consumption), Changed value ([2]; average ± S.E., basic value 1.70 ± 0.07): 2.95 ± 0.21 | A. carotis resistance, Changed value ([2]; average ± S.E., basic value 2.33 ± 0.23): 2.02 ± 0.32 Hgmm/ml/min | A. vertebralis resistance, Changed value ([2]; average ± S.E., basic value 3.28 ± 0.33): 1.81 ± 0.17 Hgmm/ml/min | A. femoralis resistance, Changed value ([2]; average ± S.E., basic value 4.84 ± 0.86): 2.66 ± 0.42 Hgmm/ml/min | Frequence volume, Changed value ([2]; average ± S.E., basic value 5.5 ± 0.3): 8.8 ± 0.9 mL | Oxygen consumption of the left ventricle, Changed value ([2]; average ± S.E., basic value 11.6 ± 0.9): 8.2 ± 1.2 ml/min/100 g | A. femoralis flow, Changed value ([2]; average ± S.E., basic value 34 ± 7): 49 ± 10 mL/min | A. vertebralis flow, Changed value ([2]; average ± S.E., basic value 43 ± 6): 65 ± 9 | A. carotis flow, Changed value ([2]; average ± S.E., basic value 70 ± 7): 89 ± 13 mL/min | Coronary flow, Changed value ([2]; average ± S.E., basic value 95 ± 5): 129 ± 9 ml/min/100 g | Arterial blood pressure, Changed value ([2]; average ± S.E., basic value 121 ± 5): 94 ± 4 Hgmm | Heart frequence/min, Changed value ([2]; average ± S.E., basic value 146 ± 8): 114 ± 9 min⁻¹ | Minute volume, Changed value ([2]; average ± S.E., basic value 875 ± 42): 975 ± 34 mL/min | Contractibility of the left ventricle (dP/dt), Changed value ([2]; average ± S.E., basic value 5105 ± 434): 4248 ± 865 Hgmm/sec | Total peripherial resistance, Changed value ([2]; average ± S.E., basic value 10652 ± 991): 8185 ± 748 dyn. sec. cm^-5 | LD50 (acute toxicity on mice; p.o. on mice ♀): 165 mg/kg | LD50 (acute toxicity on mice; p.o. on mice ♂): 269 mg/kg | Arterial blood pressure, Duration of effect [3]: 9 min | Arterial blood pressure, Percental difference [3]: -43 | Auricle fibrillation threshold, Duration of effect [3]: 11 min | Auricle fibrillation threshold, Percental difference [3]: +58 | Ventricle fibrillation threshold, Duration of effect [3]: 13 min | Ventricle fibrillation threshold, Percental difference [3]: +25 | Auricle fibrillation threshold, Changed value ([3]; average ± S.E., basic value 0.73 ± 0.10): 1.15 ± 0.11 mA | Ventricle fibrillation threshold, Changed value ([3]; average ± S.E., basic value 2.07 ± 0.10): 2.58 ± 0.09 mA | Arterial blood pressure, Changed value ([3]; average ± S.E., basic value 139 ± 5): 79 ± 8 Hgmm

— patent publication EP0067711A2, “New 1-benzyl-3,4-dihydro-isoquinoline derivative” (CHINOIN Gyogyszer és Vegyészeti Termékek Gyára RT., priority 1981, dated 1982)
